Measurements reported in ChEMBL document CHEMBL1201862, “PubChem BioAssay data set” (2004).
Activity calls are given as the source filed them.

Legend:
[1] = target: T1, Estrogen receptor beta (Homo sapiens, UniProt Q92731);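 note: recombinant ER-beta bound to coactivator SRC1 peptide in presence of estradiol agonist; inhibitors block coactivator peptide binding and lower the FRET signal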
[2] = target: T1, Estrogen receptor beta; assay: blockers of SRC-3 recruitment to ERβ – biochemical, ELISA, streptavidin-HRP readout, orthogonal assay, confirmation (AID 1060)
[3] = target: T2, Carboxy-terminal domain RNA polymerase II polypeptide A small phosphatase 1 (Homo sapiens, UniProt Q9GZU7); assay: CTDSP1 inhibitors, concentration-response, biochemical, absorbance readout, ultra-high-throughput screen actives (AID 540297); type: functional
T2 sequence (Q9GZU7 whole entry): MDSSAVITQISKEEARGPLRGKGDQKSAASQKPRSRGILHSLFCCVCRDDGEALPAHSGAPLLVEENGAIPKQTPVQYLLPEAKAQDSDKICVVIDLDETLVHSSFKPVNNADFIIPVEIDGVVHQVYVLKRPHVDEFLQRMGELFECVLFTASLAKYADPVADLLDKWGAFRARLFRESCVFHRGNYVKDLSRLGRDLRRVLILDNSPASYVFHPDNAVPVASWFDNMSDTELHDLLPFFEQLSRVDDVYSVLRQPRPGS

[4] = target: E3 ubiquitin-protein ligase UHRF1 (Homo sapiens, UniProt Q96T88); assay: Counterscreen for inhibitors of 5-meCpG-binding domain protein 2 (MBD2): TRFRET-based biochemical high throughput dose response assay to identify inhibitors of binding of ubiquitin-like with PHD and ring finger domains 1 (UHRF1) to methylated oligonucleotide.
[5] = target: T3, Fatty acid synthase (Homo sapiens, UniProt P49327); assay: inhibition of human FAS-TE enzyme activity – biochemical, kinetic fluorescence intensity, dose response (AID 624326); type: functional;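 note: rate of fluorescence rise from hydrolysis of a fluorogenic O-methyl fluorescein ester substrate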
[6] = target: Prothrombin (Homo sapiens, UniProt P00734); assay: Thrombin 1536 HTS Dose Response Confirmation. [Related pubchem assays: 1046 (Thrombin 1536 HTS; hits were confirmed in this assay)]; type: functional
[7] = target: T4, Coagulation factor XII (Homo sapiens, UniProt P00748); type: functional;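 note: activated factor XIIa alpha cleaving a fluorogenic AMC peptide substrate; inhibitor potency from loss of enzyme activity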
T4 sequence (P00748 whole entry): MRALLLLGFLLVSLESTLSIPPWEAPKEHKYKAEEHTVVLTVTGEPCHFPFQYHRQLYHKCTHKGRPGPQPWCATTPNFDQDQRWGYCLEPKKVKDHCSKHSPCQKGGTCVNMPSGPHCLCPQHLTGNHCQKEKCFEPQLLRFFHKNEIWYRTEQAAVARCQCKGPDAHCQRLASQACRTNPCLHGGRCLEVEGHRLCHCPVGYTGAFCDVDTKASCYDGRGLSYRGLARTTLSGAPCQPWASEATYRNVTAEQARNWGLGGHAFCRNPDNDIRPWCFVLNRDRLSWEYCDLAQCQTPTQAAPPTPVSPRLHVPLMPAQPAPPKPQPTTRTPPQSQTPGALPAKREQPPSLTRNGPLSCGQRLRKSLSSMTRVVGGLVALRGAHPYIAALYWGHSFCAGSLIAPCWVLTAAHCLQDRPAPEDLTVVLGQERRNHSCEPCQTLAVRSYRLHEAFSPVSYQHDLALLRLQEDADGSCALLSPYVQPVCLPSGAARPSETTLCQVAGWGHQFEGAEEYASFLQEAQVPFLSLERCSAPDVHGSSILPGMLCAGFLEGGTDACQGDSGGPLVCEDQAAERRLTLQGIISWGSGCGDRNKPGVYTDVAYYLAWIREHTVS

[8] = target: T3, Fatty acid synthase; assay: inhibition of human FAS-TE enzyme activity – biochemical, endpoint fluorescence intensity, uHTS hits, dose response (AID 624327); type: functional;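 note: fluorescence from hydrolysis of an O-methyl fluorescein acyl ester substrate by the enzyme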
[9] = target: Genome polyprotein (dengue virus type 2, UniProt P29990); assay: flavivirus cap methylation enzyme inhibition – biochemical, confirmation dose response, primary screen (AID 588689); type: functional
[10] = target: T5, DNA repair protein RAD52 homolog (Homo sapiens, UniProt P43351); type: functional, biochemical
T5 sequence (P43351 whole entry): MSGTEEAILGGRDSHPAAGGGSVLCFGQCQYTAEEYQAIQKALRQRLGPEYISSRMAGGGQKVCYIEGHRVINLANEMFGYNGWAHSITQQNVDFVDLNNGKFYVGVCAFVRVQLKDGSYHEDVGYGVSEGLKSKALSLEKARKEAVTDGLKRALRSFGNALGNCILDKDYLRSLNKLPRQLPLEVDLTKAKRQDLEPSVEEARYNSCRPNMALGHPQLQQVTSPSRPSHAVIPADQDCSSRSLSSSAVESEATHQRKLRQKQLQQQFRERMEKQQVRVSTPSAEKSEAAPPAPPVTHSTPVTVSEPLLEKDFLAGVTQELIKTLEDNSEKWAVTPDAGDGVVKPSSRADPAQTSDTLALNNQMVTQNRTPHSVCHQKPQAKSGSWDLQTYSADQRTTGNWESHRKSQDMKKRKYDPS

[11] = target: T6, Potassium channel subfamily K member 9 (Homo sapiens, UniProt Q9NPC2); assay: TASK3 channel blockers, electrophysiology – cell-based, automated electrophysiology, selectivity assay for TASK1 (KCNK3) inhibitor project, SAR follow-up (AID 652210); type: functional
[12] = target: Potassium channel subfamily K member 3 (Rattus norvegicus, UniProt O54912); assay: SAR analysis for the identification of selective inhibitors of the two-pore domain potassium channel TASK1(KCNK3):Automated Electrophysiology.; type: functional
[13] = target: T6, Potassium channel subfamily K member 9; assay: KCNK9 flux blockade, concentration-response – cell-based, FluxOR thallium flux, selectivity assay for TASK1 inhibitor project, SAR follow-up (AID 652211); type: functional;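 note: potency is for inhibitors of the channel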
[14] = glucagon-like peptide-1 release potency in STC-1, concentration-response, half-maximal inhibitory concentration in the STC-1 line (AID 1117345); type: functional, cell-based
[15] = Potency on glucagon-like peptide 1 release, dose-response in NCI-H716 cell line, half maximal inhibitory concentration (AID 1117344); type: functional, cell-based
[16] = test system: P388/ADR; assay: cells; type: functional; conditions: Mus musculus
[17] = test system: P388; assay: cells; type: functional; conditions: Mus musculus
[18] = rise of 2N DNA cells, HeLa – IC50, dose response (AID 1117349); type: functional, cell-based
[19] = test system: SN12K1; assay: cells; type: functional; conditions: Homo sapiens
[20] = rise of 4N DNA cells, HeLa – IC50, dose response (AID 1117351); type: functional, cell-based

T1 sequence (Q92731 whole entry): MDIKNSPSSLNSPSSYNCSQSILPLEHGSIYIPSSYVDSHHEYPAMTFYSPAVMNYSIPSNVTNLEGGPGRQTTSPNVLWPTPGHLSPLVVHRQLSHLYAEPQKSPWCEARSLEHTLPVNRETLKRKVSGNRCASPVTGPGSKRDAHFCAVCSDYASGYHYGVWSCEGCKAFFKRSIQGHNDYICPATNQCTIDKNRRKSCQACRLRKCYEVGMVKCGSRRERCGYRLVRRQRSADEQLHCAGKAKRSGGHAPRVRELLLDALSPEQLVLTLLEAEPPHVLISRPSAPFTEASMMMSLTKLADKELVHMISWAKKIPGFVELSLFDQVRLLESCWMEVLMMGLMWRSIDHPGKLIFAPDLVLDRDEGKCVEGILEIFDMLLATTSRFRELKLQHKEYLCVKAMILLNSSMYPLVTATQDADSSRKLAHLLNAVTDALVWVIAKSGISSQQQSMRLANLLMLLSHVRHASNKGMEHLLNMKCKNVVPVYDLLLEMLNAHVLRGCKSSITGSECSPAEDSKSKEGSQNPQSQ
Chain of E3 ubiquitin-protein ligase UHRF1 (Q96T88 whole entry, the tested form may be a part): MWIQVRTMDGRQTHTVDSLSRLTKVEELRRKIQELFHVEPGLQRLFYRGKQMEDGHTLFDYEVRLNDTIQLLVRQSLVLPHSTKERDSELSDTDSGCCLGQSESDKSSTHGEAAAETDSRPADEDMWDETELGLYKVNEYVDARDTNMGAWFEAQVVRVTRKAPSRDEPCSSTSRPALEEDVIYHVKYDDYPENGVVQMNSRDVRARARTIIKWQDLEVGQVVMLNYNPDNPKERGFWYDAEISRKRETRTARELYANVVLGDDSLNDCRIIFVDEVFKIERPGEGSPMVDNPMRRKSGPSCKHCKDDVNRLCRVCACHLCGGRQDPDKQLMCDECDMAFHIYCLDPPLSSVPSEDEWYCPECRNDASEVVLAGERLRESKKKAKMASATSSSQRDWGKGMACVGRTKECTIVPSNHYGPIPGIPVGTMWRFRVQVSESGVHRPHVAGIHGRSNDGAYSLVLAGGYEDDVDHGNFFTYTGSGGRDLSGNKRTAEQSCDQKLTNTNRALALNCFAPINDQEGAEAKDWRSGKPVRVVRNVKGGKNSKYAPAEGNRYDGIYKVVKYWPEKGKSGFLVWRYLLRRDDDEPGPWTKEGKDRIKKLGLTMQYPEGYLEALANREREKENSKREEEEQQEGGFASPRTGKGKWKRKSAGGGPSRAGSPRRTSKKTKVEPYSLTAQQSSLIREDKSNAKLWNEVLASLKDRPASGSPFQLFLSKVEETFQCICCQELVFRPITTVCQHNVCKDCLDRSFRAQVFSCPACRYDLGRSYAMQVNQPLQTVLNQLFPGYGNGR
T6 sequence (Q9NPC2 whole entry, the tested form may be a part): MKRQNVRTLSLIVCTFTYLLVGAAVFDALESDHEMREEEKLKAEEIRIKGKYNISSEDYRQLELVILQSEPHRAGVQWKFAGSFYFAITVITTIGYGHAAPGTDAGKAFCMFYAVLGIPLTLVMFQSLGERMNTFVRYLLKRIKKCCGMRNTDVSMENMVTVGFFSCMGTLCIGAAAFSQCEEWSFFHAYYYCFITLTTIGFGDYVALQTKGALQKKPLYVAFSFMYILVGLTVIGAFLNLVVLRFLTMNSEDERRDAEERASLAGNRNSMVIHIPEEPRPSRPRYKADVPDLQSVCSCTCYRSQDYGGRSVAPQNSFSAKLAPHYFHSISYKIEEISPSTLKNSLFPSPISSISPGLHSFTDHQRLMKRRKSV
T3 sequence (P49327 whole entry): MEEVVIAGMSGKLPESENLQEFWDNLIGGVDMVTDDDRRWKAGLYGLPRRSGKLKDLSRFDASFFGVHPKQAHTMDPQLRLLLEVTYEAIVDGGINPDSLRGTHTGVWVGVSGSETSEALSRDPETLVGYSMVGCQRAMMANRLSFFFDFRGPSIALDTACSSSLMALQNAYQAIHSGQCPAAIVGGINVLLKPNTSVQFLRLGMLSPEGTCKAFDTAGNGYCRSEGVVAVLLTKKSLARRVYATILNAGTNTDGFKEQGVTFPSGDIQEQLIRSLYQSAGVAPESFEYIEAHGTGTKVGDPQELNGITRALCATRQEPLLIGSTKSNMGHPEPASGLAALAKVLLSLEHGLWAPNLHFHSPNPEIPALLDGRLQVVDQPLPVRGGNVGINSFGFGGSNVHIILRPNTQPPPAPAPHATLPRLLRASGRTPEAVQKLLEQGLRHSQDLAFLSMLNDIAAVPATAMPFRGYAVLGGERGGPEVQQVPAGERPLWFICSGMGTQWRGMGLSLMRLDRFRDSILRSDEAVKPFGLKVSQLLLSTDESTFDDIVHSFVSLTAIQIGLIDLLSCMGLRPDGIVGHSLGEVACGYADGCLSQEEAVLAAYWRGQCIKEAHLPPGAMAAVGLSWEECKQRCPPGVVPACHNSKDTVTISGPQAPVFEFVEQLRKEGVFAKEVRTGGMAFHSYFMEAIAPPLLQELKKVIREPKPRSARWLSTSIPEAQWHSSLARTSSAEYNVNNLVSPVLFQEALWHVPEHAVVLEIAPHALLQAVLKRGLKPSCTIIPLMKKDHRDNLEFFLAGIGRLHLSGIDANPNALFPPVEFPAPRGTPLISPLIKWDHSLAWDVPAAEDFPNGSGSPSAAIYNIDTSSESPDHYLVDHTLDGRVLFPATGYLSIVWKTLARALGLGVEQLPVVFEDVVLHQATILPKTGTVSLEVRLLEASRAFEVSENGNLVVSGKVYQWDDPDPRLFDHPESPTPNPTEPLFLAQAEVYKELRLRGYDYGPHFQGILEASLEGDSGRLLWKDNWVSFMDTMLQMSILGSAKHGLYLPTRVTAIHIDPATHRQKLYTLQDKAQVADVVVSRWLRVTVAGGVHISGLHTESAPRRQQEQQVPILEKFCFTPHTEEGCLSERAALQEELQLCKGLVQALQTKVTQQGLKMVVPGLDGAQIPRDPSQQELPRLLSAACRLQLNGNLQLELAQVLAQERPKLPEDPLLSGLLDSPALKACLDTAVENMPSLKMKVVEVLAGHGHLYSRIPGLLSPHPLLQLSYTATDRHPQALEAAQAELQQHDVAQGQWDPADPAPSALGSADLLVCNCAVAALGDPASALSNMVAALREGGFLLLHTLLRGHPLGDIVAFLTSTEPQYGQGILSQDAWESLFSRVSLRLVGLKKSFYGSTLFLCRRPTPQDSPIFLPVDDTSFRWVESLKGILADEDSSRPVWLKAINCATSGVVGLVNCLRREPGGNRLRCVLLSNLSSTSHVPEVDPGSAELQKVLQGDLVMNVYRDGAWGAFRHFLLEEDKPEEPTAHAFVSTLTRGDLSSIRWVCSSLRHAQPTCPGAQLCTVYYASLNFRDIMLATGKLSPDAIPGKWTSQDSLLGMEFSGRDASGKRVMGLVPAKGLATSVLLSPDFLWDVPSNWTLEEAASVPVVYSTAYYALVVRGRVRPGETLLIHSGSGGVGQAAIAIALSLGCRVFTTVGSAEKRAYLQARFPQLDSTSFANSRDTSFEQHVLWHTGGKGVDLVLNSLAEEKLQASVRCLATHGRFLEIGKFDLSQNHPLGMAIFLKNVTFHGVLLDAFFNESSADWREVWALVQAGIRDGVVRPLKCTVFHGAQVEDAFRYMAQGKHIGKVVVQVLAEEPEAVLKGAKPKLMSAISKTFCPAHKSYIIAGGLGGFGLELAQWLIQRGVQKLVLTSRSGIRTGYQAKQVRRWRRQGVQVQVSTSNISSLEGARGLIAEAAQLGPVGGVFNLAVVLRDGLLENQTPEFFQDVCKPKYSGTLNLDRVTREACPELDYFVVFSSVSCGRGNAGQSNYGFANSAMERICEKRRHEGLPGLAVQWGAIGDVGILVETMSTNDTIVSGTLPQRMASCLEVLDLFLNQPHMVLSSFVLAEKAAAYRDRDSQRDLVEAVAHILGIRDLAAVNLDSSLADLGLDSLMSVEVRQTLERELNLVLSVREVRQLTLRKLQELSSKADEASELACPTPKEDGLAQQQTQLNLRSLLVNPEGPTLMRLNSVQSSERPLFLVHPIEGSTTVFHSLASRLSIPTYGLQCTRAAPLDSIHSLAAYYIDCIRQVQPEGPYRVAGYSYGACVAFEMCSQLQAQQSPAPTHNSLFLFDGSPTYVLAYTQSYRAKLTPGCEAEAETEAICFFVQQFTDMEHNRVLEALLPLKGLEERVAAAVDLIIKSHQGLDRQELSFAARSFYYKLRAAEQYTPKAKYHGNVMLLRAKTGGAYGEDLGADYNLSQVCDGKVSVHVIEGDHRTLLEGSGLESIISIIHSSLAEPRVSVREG
Chain of Genome polyprotein (P29990 2492-3391 limits assumed): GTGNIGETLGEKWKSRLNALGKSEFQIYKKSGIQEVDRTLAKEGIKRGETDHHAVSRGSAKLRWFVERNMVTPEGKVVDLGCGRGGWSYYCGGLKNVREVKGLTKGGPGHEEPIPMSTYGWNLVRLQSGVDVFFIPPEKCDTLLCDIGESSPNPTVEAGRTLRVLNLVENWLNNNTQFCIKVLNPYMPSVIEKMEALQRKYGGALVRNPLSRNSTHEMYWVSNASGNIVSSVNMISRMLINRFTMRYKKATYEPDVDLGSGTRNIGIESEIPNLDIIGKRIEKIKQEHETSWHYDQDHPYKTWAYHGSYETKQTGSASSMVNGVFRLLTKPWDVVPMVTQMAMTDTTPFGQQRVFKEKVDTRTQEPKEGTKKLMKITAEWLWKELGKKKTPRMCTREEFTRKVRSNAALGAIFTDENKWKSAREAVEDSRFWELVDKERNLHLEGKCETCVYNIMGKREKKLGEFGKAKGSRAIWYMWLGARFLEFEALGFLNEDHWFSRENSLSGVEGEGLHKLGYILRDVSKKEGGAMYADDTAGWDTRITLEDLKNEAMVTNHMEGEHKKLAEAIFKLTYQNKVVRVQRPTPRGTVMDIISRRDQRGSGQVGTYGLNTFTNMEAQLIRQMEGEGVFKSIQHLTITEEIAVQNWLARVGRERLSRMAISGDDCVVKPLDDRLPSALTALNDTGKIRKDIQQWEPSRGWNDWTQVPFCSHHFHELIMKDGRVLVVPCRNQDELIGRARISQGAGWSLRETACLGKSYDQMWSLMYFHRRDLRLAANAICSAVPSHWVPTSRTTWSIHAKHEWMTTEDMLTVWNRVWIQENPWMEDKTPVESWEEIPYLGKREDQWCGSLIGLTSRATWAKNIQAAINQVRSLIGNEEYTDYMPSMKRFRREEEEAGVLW

For `Cc1nn(-c2ccccc2)c(C)c1NC(=O)Cc1cccs1`, the IC50 [1] was 27.1 µM (active) and the IC50 [2] was 0.0611 µM (not active).
For `NC(=O)c1ccc(N/C=C2/C(=O)NC(=O)N(Cc3ccco3)C2=O)cc1`, the IC50 [3] was 3.45 µM (active) and the IC50 [4] was 31.3 µM (inactive).
With `Cc1ccc(S(=O)(=O)ON2C(=O)c3ccccc3C2=O)c(C)c1` the IC50 [5] was 1.39 µM (active), the IC50 [6] was 0.856 µM (active) and the IC50 [7] was 8.48 µM (active). For the same compound, the IC50 [8] was 1.35 µM (active) and the IC50 [9] was 96.3 µM (active).
With `Cc1cccc(NC(=O)C2CCN(S(=O)(=O)c3c(C)nn(C)c3C)CC2)n1` the IC50 [1] was > 50 µM (not active).
In the case of `CN(C)CCNC(=O)c1cccc2[nH]c(-c3ccncc3)nc12`, the AC50 [10] is reported as 10 µM (active) and the IC50 [4] is reported as 10.6 µM (inactive).
In the case of `COc1cccc(C(=O)Nc2cccc(NC(=O)c3ccccc3)c2)c1`, the IC50 [11] is reported as 0.42 µM (active), the IC50 [12] is reported as 0.61 µM (active) and the IC50 [13] is reported as 25.9 µM (active).
With `CC1=C(C(=O)OC(C)C)C(c2cccc([N+](=O)[O-])c2)C(C(=O)OC2CN(C(c3ccccc3)c3ccccc3)C2)=C(N)N1` (configuration not stated) [AZELNIDIPINE] the IC50 [14] was 1.23 µM (active) and the IC50 [15] was 12.8 µM (inactive).
In the case of `O=C(CCBr)N1CCN(C(=O)CCBr)CC1` [PIPOBROMAN], the GI50 [16] is reported as 13.2 µM (inactive), the GI50 [17] is reported as 14.1 µM (inactive) and the IC50 [18] is reported as > 10 µM (inactive). The GI50 [19] was 65.3 µM (inactive) and the IC50 [20] was > 10 µM (inactive).
